Results taken from patent publication US12201592B2, “Combinations of IRS/STAT3 dual modulators and anti-cancer agents for treating cancer” (TYRNOVO LTD., priority 2015, dated 2025).
Read-outs that look alike come from different tables or passages of the source.

Columns and labels:
[1] = tested on: pStat3 in 451-LU-BR, Mel1617-BR and patient cells M2068, M571; test: Immunoblot of pStat3 in BRAFi-resistant melanoma cells; assay type: cell-based, human
Experimental: FIGS. 8A-8D. […] FIG. 8C. […] FIG. 8D. Cells of various cancer types were treated with compound D for 4 hr in serum-free medium, and 20 hr in medium with or without 10% serum. Asterisks indicate 10 μM concentration for RPMI8226 and HepG2 cells.
(§1) • Cells were treated as indicated in FIGS. 6-9 and the corresponding figure legends, following overnight serum-starvation (unless indicated differently). When cells were treated with both PLX4032 and compounds A or D, PLX4032 was added 3-4 hr following the compounds. • Cells were lysed with boiling sample buffer (10% glycerol, 50 mmol/L Tris-HCl, pH 6.8, 3% SDS, and 5% 2-mercaptoethanol). Western blot analysis was conducted in 8% SDS-PAGE, using antibodies described below. • Aliquots of cell extracts containing equal amounts of protein were resolved by 8% SDS/PAGE and electroblotted onto nitrocellulose filters. The membranes were blocked with low-fat milk diluted 1:20 in TBST (NaCl/Tris containing 0.2% Tween-20) for 0.5 hr, incubated with Rabbit anti-phosphoY705-Stat3 antibody (Cell signaling cat #9131), Mouse anti-ERK-diphosphorylated-YT (Sigma Aldrich cat #M8159) or anti-PARP antibodies overnight at 4 C in 5% BSA in TBST containing 0.05% azid, washed extensively with TBST and then incubated with horseradish peroxidase-conjugated secondary antibodies for 45 min at room temperature in 5% BSA in TB ST. • Immunoreactive bands were visualized using enhanced chemiluminescence. Membranes were re-blotted with Mouse anti-Stat3 antibody (Transduction labs cat #21320) or with Rabbit anti AKT1/2 (Santa cruz cat #sc-8312) or Anti-Actin as described above. IV. Chemotaxis of Peripheral Blood Mononuclear Cells (PBMCs)

[2] = tested on: pStat3 in A375, 451-Lu, Mel1617 cells; test: Immunoblot of basal and PLX4032-induced pStat3 in PLX4032-sensitive melanoma cells; assay type: cell-based, human; settings: PLX4032 1 μM added 3-4 hr after the compounds (FIG. 7C-E, 8A)
Experimental: FIGS. 7A-7E. […] FIG. 7A. […] FIG. 7B. […] Cells from patients were grown in complete medium and immunoblotted as described above. […] Compounds A/D block the basal and the PLX4032-induced pStat3. Treatment of PLX4032-sensitive human melanoma A375 (C), 451-Lu (D) or Mel1617 (E) cells with 1 μM PLX4032 for 18-24 hr induces a dramatic increase in pStat3. Compounds A (FIG. 7C, D) or D (FIG. 7E) block both the basal and the PLX4032-induced pStat3. OSI-906, an ATP-competitive inhibitor of IGF1R, has no effect on pStat3.
as §1

HCT15 = test: Cell proliferation and viability, methylene-blue staining; assay type: cell-based; settings: Homo sapiens, HCT-15, 72 h; HCT15, colon cancer; 3 days exposure
Experimental: Cells were grown in complete medium and treated with inhibitors one day following seeding. 72 hours later, the surviving cells were quantified by methylene blue staining or by WST-1 staining for nonadherent cells (Roche). Cells were plated in 96-well plates in 5-10% FCS in medium; a day later exposed to various concentrations of compound A, compound D or OSI-906 and 3 days later stained with methylene-blue and the relative cell number was quantified.

MM1S = test: Cell proliferation and viability; assay type: cell-based; settings: Homo sapiens, MM1.S, 72 h, multiple myeloma, 3 days exposure
Experimental: (§2) Cells were grown in complete medium and treated with inhibitors one day following seeding. 72 hours later, the surviving cells were quantified by methylene blue staining or by WST-1 staining for nonadherent cells (Roche).
(§3) Cells were plated in 96-well plates in 5-10% FCS in medium; a day later exposed to various concentrations of compound A, compound D or OSI-906 and 3 days later stained with methylene-blue and the relative cell number was quantified.

[3] = tested on: Uteral AdenoSarcoma biopsy; test: PDX efficacy study with Afinitor, repeat (Example 5A); assay type: in vivo, NodScid mice; settings: Afinitor 5 mg/kg PO, Compound D 70 mg/kg IV
Experimental: The experiment described in Example 4 was repeated in purchased mice from Harlan.
• 1. […] Afinitor 5 mg/kg PO, 4 times a week (17 mice). • 4.

[4] = tested on: phospho-Y705 Stat3 (pSTAT3) in melanoma A375 cells; test: Immunoblot of Stat3 Y705-phosphorylation in intact cells; assay type: cell-based, human; settings: Homo sapiens, A-375
Experimental: FIGS. 6A-6E. […] A. Human melanoma A375 cells were treated with the indicated concentrations of compounds A or D for 1.3 and 4.5 hr. Cells were lysed and immunoblotted with antibodies against phospho-Y705 Stat3 (pSTAT3) and Stat3. […] B. Cells were treated with 2 μM Compound A and lysed following the indicated times. C. A375 cells were treated with compound D for 4 hr, then washed with medium several times and lysed after 4, 24 and 48 hr of incubation without inhibitors.
as §1

Mel1617-Pa = test: Cell proliferation and viability, methylene-blue staining; assay type: cell-based; settings: Homo sapiens, 72 h, melanoma, 3 days exposure
Experimental: (§4) All melanoma cells used and discussed in FIGS. 6-9 and table 1 are from human origin and bearing the mutated BRAF^600K/E.
as §2, §3

Mel1617-BR = test: as above; assay type: cell-based; settings: Homo sapiens, 72 h, melanoma, 3 days exposure
Experimental: as §4, §2, §3

451Lu-Pa = test: as above; assay type: cell-based; settings: Homo sapiens, 72 h, melanoma, 3 days exposure
Experimental: (§5) All cell lines were obtained from the American Type Culture Collection. YUMAC, YURIF, YUSIK (all human melanoma, kindly provided by Prof. Ruth Halaban, Yale University, New Haven, Conn.) were cultured in OptiMEM containing 5% FCS. M571, M2068, M560n (all human melanoma, kindly provided by Dr. Michal Lotem, Hadassah Hospital, Jerusalem, Israel) were maintained in RPMI, DMEM and F12 (1:3:1) containing 10% FCS. 451-Lu (human melanoma) and 451-Lu-BR (PLX4032-resistant melanoma; ref. 32) were maintained in RPMI containing 5% FCS (media for resistant lines contained […] PLX4032). All media were supplemented with 100 U/mL penicillin and […] and all cells were grown at 37° C./5% CO2.
as §4, §2, §3

451Lu-BR = test: as above; assay type: cell-based; settings: Homo sapiens, 72 h, melanoma, 3 days exposure
Experimental: as §5, §4, §2, §3

[5] = tested on: Adenoid Cyctic Carcinoma tumor biopsy; test: PDX efficacy study with Trametinib (Example 9); assay type: in vivo, NodScid mice; settings: day0-day13; start ~65 mm^3; Trametinib 1 mg/kg PO, Compound D 70 mg/kg IV
Source text: Experimental system: Patient-derived xenograft (PDX) of Adenoid Cyctic Carcinoma tumor biopsy subcutaneous implanted into NodScid mice.
• Biopsy: Fresh human primary Adenoid Cyctic Carcinoma tumor biopsy. […] The mice were randomly divided into treatment groups including 5 animals/group. The vehicle-treated group included 4 mice. II. Treatments and Procedures
Treatment groups included: • 1. Vehicle-control: vehicle of Trametinib (5% Propylene Glycol, 0.5% Tween-80, 30% PEG 400 in Sterile DDW) 200 μl PO (5 times/week, qd). • 2. […] Trametinib 1 mg/kg PO (5 times/week, qd). • 4.
(§6) The length (l) and the width (w) of the tumors were measured 2-4 times a week and the volumes of the tumors were calculated as follows: v=lw^2/2.

HepG2 = test: Cell proliferation and viability, methylene-blue staining; assay type: cell-based; settings: Homo sapiens, 72 h; HepG2, hepatocarcinoma; 3 days exposure
Experimental: as §2, §3

PC3 = test: as above; assay type: cell-based; settings: Homo sapiens, PC-3, 72 h; PC3, prostate cancer; 3 days exposure
Experimental: as §2, §3

[6] = tested on: colon metastatic carcinoma biopsy; test: PDX efficacy study with Cetuximab and FOLFIRI (Example 12); assay type: in vivo, NodScid mice; settings: start ~110 mm^3; 14 days
Experimental: Experimental system: Patient-derived xenograft (PDX) of human primary colon metastatic carcinoma biopsy subcutaneous implanted into NodScid mice.
The length (l) and the width (w) of the tumors were measured 4 times a week and the volume of the tumors were calculated as follows: v=lw^2/2.

HNSCC tumor biopsy = test: PDX efficacy study, tumor recurrence after Cetuximab±Afatinib (Example 7); assay type: in vivo, NodScid mice; settings: 9 days of treatment; start ~113 mm^3
Experimental: Experimental system: Patient-derived xenograft (PDX) of HNSCC tumor biopsy subcutaneous implanted into NodScid mice.
• Implantation of HNSCC tumor biopsy graft (P6) into NodScid mice for efficacy study: Few months following implantation of frozen HNSCC tumor biopsy graft (P1) in mice, tumor cells (P6) were injected into NodScid mice (generated by in-house breeding), using the same procedure described for implantation of P1. The original biopsy is the same as described above and the P indicates passages (implantation number in mice). • Onset of tumor growth (palpable tumor mass) was detected four days following cell injection. Five days later, treatments initiated in mice which developed tumors sized around 113 mm^3. […] Treatments and Procedures
Treatment groups included: • 1. Vehicle-control: Vehicle (0.5% Hydroxymethyl-cellulose, 0.4% Tween-80) 200 μl PO (5 times/week, qd). • 2. Compound D 70 mg/kg in HPbCD, IV (3 times/week, qod). • 3.
as §6

[7] = tested on: Uteral AdenoSarcoma biopsy; test: PDX efficacy study with Afinitor (Examples 4 and 5); settings: phase I
Experimental: Treatments and Procedures
Treatment groups included: • 1. Control: 20% HPbCD 50 ul IP, qod (6 mice). • 2. […] Afinitor 5 mg/kg PO, qod (15 mice). • 4. Afinitor 5 mg/kg PO (qod)+Compound D 70 mg/kg IV (qod), 6 mice. Afinitor was administered ˜4 hr following Compound D.
All treatments were initiated simultaneously on day0.
The length (l) and the width (w) of the tumors were measured every other day and the volumes of the tumors were calculated as follows: v=lw^2/2.
Following treatments described in phase I (example 4), the mice whose tumors reached the end point were sacrificed, and the following treatments were continued.
• 1. The Afinitor-responder group (group A, open squares) was administered with Afinitor 5 mg/kg PO, qd (8 mice). • 2. The combined treatment group (open circles) continued to get the Afinitor 5 mg/kg PO (qod)+Compound D 70 mg/kg IV (qod) treatment (6 mice). Afinitor was administered ˜4 hr following Compound D. Phase III:
The group was divided to two groups of 4 mice each which received the following treatments on day6 onwards: • The first continued to get Afinitor 5 mg/kg PO, qd (4 mice) • and the second got Afinitor 5 mg/kg PO (qod)+Compound D 70 mg/kg IV (qod) combined treatment (4 mice). Afinitor was administered ˜4 hr following Compound D.

[8] = tested on: Squamous Cell carcinoma of Head&Neck (SCCHN) tumor biopsy; test: PDX efficacy study, acquired resistance to Erlotinib (Example 1); settings: start ~80 mm^3; Erlotinib 100 mg/kg PO, Compound D 70 mg/kg IV; two weeks
A375 melanoma cells = test: Apoptosis after short exposure and wash-out; assay type: cell-based, human; settings: 4 hr exposure, washed; 24 and 48 hr later (FIG. 6C)
Experimental: as §1, with “Chemotaxis of Peripheral Blood Mononuclear Cells (PBMCs)” left out

[9] = tested on: pancreatic cancer metastasis from the liver; test: PDX efficacy study with Gemcitabine (Example 10); assay type: in vivo, NodScid mice
Experimental: Experimental system: Patient-derived xenograft (PDX) of a biopsy of pancreatic cancer metastasis from the liver, subcutaneous implanted into NodScid mice.
• Implantation of pancreatic cancer metastasis from the liver RA_160 tumor biopsy graft (P5) into NodScid mice for efficacy study: Several weeks following implantation of pancreatic cancer liver metastasis biopsy graft in mice, tumor cells (P5) were injected into NodScid mice (generated by in-house breeding), using the same procedure described above. • Onset of tumor growth (palpable tumor mass) was detected ten days following cell injection. A week later (on da0), 19 mice with average tumor size of 90 mm^3 initiated treatments with Gemcitabine 25 mg/kg IP twice a week for 35 days. […] On day21 the average tumor size in Gemcitabine-treated group was ˜5 mm^3 as compared to 1400 mm^3 in the control group. • 42 days following initiation of treatment with Gemcitabine resistance developed and regressed tumors progressed. Four days later 16 mice of the Gemcitabine-treated group with average tumor volume of ˜110 mm^3 were divided to two groups as follows. II. Treatments
Treatment groups, following resistance to Gemcitabine has been acquired, included: • 1. Gemcitabine 25 mg/kg IP twice a week • 2. Gemcitabine 25 mg/kg IP+Compound D 70 mg/kg IV, twice a week.

[10] = tested on: tumor pieces of pancreatic cancer liver metastasis PDX; test: Culture of tumor pieces excised at the end of the experiment (Example 10); assay type: cell-based; settings: three tumors per group; fixed and stained nine days later
Experimental: At the end of the experiment, tumor pieces, similar in size, from three tumors per group were cultured in separate plates to test their viability and proliferative activity.

Oc1cc(CNC(=S)/C=C/c2ccc(O)c(O)c2Br)cc(O)c1O [Compound D]
effect on Stat3 phosphorylation in PLX4032-resistant melanoma cells ([1]; 451-LU-BR, Mel1617-BR, patient cells M2068 and M571 (FIG. 8A-C)): block Stat3 phosphorylation completely
relative activity on pStat3 in melanoma cells from patients who acquired resistance to PLX4032 ([1]; FIG. 8C): better activity of compound D compared with compound A
effect on basal and PLX4032-induced pStat3 levels [2]: block both the basal and the PLX4032-induced levels of pStat3
IC50 (HCT15): 800 nM
IC50 (MM1S): 200 nM
effect on tumor growth [3]: no effect on tumor growth
IC50 ([4]; A375 cells, 1.3 hr post-treatment (FIG. 6A), read-out: IC50 of inhibition of Stat3 phosphorylation (pStat3)): ~2000 nM
IC50 ([4]; A375 cells, 3 hr later (4.5 hr treatment, FIG. 6A), read-out: IC50 of inhibition of Stat3 phosphorylation (pStat3)): < 1000 nM
IC50 ([4]; FIG. 6D, read-out: IC50 of dose-dependent inhibition of pStat3): < 1000 nM
IC50 (Mel1617-Pa): 200 nM
IC50 (Mel1617-BR): 300 nM
IC50 (451Lu-Pa): 300 nM
IC50 (451Lu-BR): 600 nM
tumor response, first phase [5]: moderate tumor growth inhibition
IC50 (HepG2): 700 nM
IC50 (PC3): 500 nM
effect on tumor growth [6]: No effect on tumor growth
tumor response while on treatment (HNSCC tumor biopsy): aggressively progressed
responder mice [7]: none of the mice responded
effect on tumor growth ([7]; four days, Afinitor 5 mg/kg PO, Compound D 70 mg/kg IV): no significant effect on tumor growth
tumor response (tumor volume) [8]: has not responded
cell apoptosis after short exposure (A375 melanoma cells): sufficient to induce cell apoptosis 24 and 48 hr later

Nc1ccn([C@@H]2O[C@H](CO)[C@@H](O)C2(F)F)c(=O)n1 [Gemcitabine]
average tumor size on day21 ([9]; Gemcitabine 25 mg/kg IP twice a week, control 1400 mm^3): ~5 mm^3
tumor response on day11 ([9]; Gemcitabine 25 mg/kg IP twice a week, start 90 mm^3): all tumors in Gemcitabine-treated mice regressed
response of Gemcitabine-resistant tumors ([9]; start ~110 mm^3, after resistance was acquired): all tumors treated with Gemcitabine progressed
time from initiation of treatment until resistance developed ([9]; treated for 35 days): 42 days
proliferative activity of cultured tumor pieces [10]: massive proliferation
